The values that follow come from patent US20120184562A1, “1,6- AND 1,8-NAPHTHYRIDINES” (priority 2011, published 2012).

Each structure is given as a SMILES string. Bounds are passed on as bounds.

In one test the target is T1, Human DYRK1B (Homo sapiens, UniProt Q9Y463).
T1 construct: purchased Invitrogen PR8350B (former PV4649)
The test is described as follows: DYRK1B Kinase TR-FRET (IMAP-Tb) Assay. Particulars: TR-FRET (IMAP-Tb); ATP 70 μM; 37° C., 60 minutes; average of multiple runs; read-out: Enzyme IC50 (μM) DYRK1B. Format: biochemical. In general terms: Time-resolved FRET reads energy transfer from a long-lived donor to a nearby acceptor.

Another test concerns the target T2, Human DYRK1A (Homo sapiens, UniProt Q13627).
T2 construct: purchased Invitrogen PV3997
The test is described as follows: DYRK1A Kinase TR-FRET (IMAP-Tb) Assay. Particulars: TR-FRET (IMAP-Tb); ATP 70 μM; 37° C., 60 minutes; average of multiple runs; read-out: Enzyme IC50 (μM) DYRK1A. It counts as biochemical.

Test [1] concerns SW620 human colon cancer cells. The test is described as follows: SW620 Cell Viability Assay. It counts as cell-based. Particulars: SW-620, 96 h, 4 days incubation, CellTiter-Glo Luminescent Cell Viability Assay, read-out: Cellular EC50 (μM) SW620. Here is the method: SW620 Cell Viability Assay
1. Cell Plate Preparation: SW620 human colon cancer cells (known to express DYRK1B), obtained from ATCC, were seeded into 96-well plates at 3×10^3 cells/well in 50 μL of media. • Harvested the required number of cells (counts & viability determined by Guava Viacount). • Centrifuge cells to pellet and removed supernant. • Resuspended in growth media (50 μL/well) & pipetted thoroughly to break up clumps. • Setup for ˜100 wells/plate, therefore, VT=5 mL/plate @ […]. 1A. Some cells (S—) were allowed to attach for 24 hrs, serum starved for 48 hrs, and then followed with drug treatments. Test compound solution were prepared in regular corresponding media supplemented with serum. 2. Test Compound Preparation: Test compounds were solubilized in either DMSO or media and prepared at various stock concentrations. • All compounds were incubated at 37° C. for 30 minutes and vortexed. • (5 mM stocks of test compound were prepared for non-soluble compounds)
• The 10 mM test compound stock was diluted to a concentration of 100× the final Cmax concentration. • Then the test compound stock is diluted 50-fold in media and/or second compound for a final Cmax concentration in the test compound plate. • The Cmax in the test compound plate (2% DMSO) is 2-fold higher than the final Cmax in the cell plate (60 uL titrations were 1:3). 4. Viability Assay: This assay was performed as follows: • Transfer 50 μL of test compound solution per well from the test compound plate onto the cell plate prepared in Step #1. • Mix the plate with treated cells by pipetting up and down three times with 200 μL multi-channel pipette. • Incubate the cells in 5% CO2 incubator @ 37° C. for 4 days. • Run the CellTiter-Glo™ Luminescent Cell Viability Assay.
The results of this assay, given as EC50 values, indicate the concentration of test compound that inhibits tumor cell proliferation by 50%.
For orientation: ATP-based viability assays read luminescence as a measure of living cells.

T1 sequence (Q9Y463 whole entry): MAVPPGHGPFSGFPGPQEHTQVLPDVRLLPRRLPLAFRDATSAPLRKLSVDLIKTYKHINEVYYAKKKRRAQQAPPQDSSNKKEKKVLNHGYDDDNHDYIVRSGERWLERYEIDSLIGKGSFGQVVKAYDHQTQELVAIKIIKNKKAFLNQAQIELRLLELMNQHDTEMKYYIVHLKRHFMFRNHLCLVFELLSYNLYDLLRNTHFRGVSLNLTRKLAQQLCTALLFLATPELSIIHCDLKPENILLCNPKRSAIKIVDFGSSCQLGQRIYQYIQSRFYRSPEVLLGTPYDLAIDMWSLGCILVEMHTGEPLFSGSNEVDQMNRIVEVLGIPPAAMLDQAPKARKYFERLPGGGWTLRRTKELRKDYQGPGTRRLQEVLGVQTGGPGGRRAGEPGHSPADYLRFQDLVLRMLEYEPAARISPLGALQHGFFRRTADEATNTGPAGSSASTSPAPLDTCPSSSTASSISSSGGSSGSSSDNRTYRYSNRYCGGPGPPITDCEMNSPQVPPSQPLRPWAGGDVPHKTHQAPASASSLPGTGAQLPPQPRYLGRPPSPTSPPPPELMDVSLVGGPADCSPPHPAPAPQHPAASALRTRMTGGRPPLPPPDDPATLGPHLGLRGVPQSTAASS

Turning to `COC(=O)c1ccc(Cl)c(NC(=O)c2cc3ccc(OC)nc3[nH]c2=O)c1` [Example 90, 4-Chloro-3-[(7-methoxy-2-oxo-1,2-dihydro-[1,8]naphthyridine-3-carbonyl)-amino]-benzoic acid methyl ester], the figures for the IC50 at Human DYRK1B and at Human DYRK1A were 0.168 µM and greater than 10 µM, respectively. The EC50 (in general, the concentration giving half of the maximal effect) in test [1] was greater than 10 µM.
Take `COc1ccc2cc(C(=O)Nc3cc(C(=O)NCc4cccc(Cl)c4)ccc3Cl)c(=O)[nH]c2n1` [Example 95, N-(2-Chloro-5-(3-chlorobenzylcarbamoyl)phenyl)-7-methoxy-2-oxo-1,2-dihydro-1,8-naphthyridine-3-carboxamide]: the IC50 (as a rule, the midpoint of a concentration-inhibition curve) on Human DYRK1B was determined as 0.047 µM; on Human DYRK1A, 0.019 µM. The EC50 in test [1] came to 1.24 µM.
The matching figures for `COc1ccc2cc(C(=O)Nc3cc(C(=O)NCc4cccc(Cl)c4)ccc3C)c(=O)[nH]c2n1` [Example 99, N-(5-(3-Chlorobenzylcarbamoyl)-2-methylphenyl)-7-methoxy-2-oxo-1,2-dihydro-1,8-naphthyridine-3-carboxamide]: 0.235 µM, 0.123 µM and greater than 10 µM.
With `COc1ccc2cc(C(=O)Nc3cc(C(=O)NC(CCN)c4ccccc4)ccc3Cl)c(=O)[nH]c2n1` (stereo not drawn) [Example 101, N-(5-(3-Amino-1-phenylpropylcarbamoyl)-2-chlorophenyl)-7-methoxy-2-oxo-1,2-dihydro-1,8-naphthyridine-3-carboxamide], the figures for the IC50 at Human DYRK1B and on Human DYRK1A were 0.0527 µM and 0.0392 µM, respectively. The EC50 in test [1] was determined as 0.0273 µM.
